Results published in US10617612B2, “Composition comprising decanal or as active ingredients for preventing hair loss or stimulating hair growth” (INDUSTRY-ACADEMIC COOPERATION FOUNDATION, YONSEI UNIVERSITY, priority 2016, dated 2020).

Experiments:
[1] = Measurement of body weight change; conditions: 3 mg/mouse/day applied to back skin once a day
Protocol: The animals were kept in a temperature of 21±2.0° C., relative humidity of 50±5%, and 12 hours of day and night cycles. During the experiment, the mice were fed with a regular solid feed (chow) with water freely.
To examine the effect of promoting hair growth, 8-week-old mouse of telogen hair showing pink color of dorsal skin was used. After removing the hair of the mouse backing using a clipper for a mouse, the sample was applied once a day at 4:00 PM for four weeks. Decanal (3 mg/mouse/day) which is experimental material and minoxidil (3 mg/mouse/day) used as a reference drug were dissolved in vehicle (ethanol:water:propylene glycol=5:3:2) and applied, and the vehicle only was applied to the negative control group.
The body weight of the experimental animals was measured weekly from immediately before application of the hair growth treatment to the end of application.

C57BL/6N mice = assay: Hair regrowth in mice with back hair removed, skin application (visual observation, hair length); assay type: in vivo; conditions: 3 mg/mouse/day on back skin once a day
Protocol: To visually confirm the state of hair growth, after the animals were lightly anesthetized with ether, the back was photographed, at the end of one week, two weeks, three weeks, and four weeks after application begins, Hair length was measured using a ruler to evaluate the degree of hair growth.

[2] = tested on: hair follicles of back skin; assay: Histological analysis of back skin (Hematoxylin-Eosin, hair follicle number and diameter); assay type: in vivo; conditions: back skin after 4 weeks of application, 3 mg/mouse/day
Excerpt: After 4 weeks of application, the animals were sacrificed and the back skin tissue sample was extracted with scissors and forceps around the area where the experimental material was applied, and fixed with formalin. After each step was dehydrated with alcohol and xylene, the back skin tissue sample was embedded with paraffin, and was cut into 5 μm slice using a microtome, and then paraffin was removed with alcohol and xylene. […] A pathology speculum specialist was examined to evaluate the hair growth cycle, and quantity of hair follicle and diameter were measured on an optical microscope.
The results of measurement of the hair follicle number in each experimental group under an optical microscope of magnification of 40 are illustrated in FIG. 3.

β-catenin [3] = assay: Western blot of back skin tissue; assay type: in vivo, mouse; conditions: 4 weeks application
Protocol: A predetermined amount of visceral fat or liver tissue was homogenized with liquid nitrogen and lysis buffer in a mortar, and then centrifuged at 13,000×g at 4° C. for 20 minutes. And the middle layer was taken and the protein was quantified by the Bradford method. 50 μg of protein was electrophoresed on SDS polyacrylamide gel, electro blotted onto PVDF hyper film, and reacted with β-catenin and β-actin antibody (Cell Signaling Technology, Danvers, Mass., USA), respectively. Signals of each protein were visualized using a chemiluminescent detection system (Amersham) and the band thickness was quantified using Quantity One Analysis Software (Bo-Rad Laboratories).
The Wnt/β-catenin Signal transduction pathway is known to be involved in promoting entry into the anagen by regulating hair follicle cycle. The expression level of β-catenin was analyzed by western blotting in the back skin tissues in order to determine whether the signal transduction pathway related to hair growth promotion was activated.

Axin = assay: RT-PCR gene expression in back skin tissue; assay type: in vivo, mouse; conditions: 4 weeks application
Protocol: (§1) To quantitatively analyze total RNA in skin tissue of experimental animal, 1 mL of Trizol solution was added to 50-100 mg of skin tissue and homogenized, followed by centrifugation at 12,000×g for 10 minutes at 4° C. After transferring the supernatant liquid to a new tube, 200 μl of chloroform was added and the mixture was vigorously shaken. This process above was repeated twice, then the supernatant liquid was transferred to a new tube and isoprophanol and the supernatant liquid were added at a ratio of 1:1. The mixture was shaken 10 times and then allowed to stand at room temperature for 10 minutes, and the supernatant liquid was removed after centrifugation at 12,000×g for 10 minutes at 4° C., and 1 ml of 70% ethanol was added to the remaining precipitate, and the precipitate was centrifuged at 7,500×g and 4° C. for 5 minutes. After removing the ethanol, the tube containing the RNA precipitate was dried at room temperature for 5 minutes, and the RNA pellet was dissolved using nuclease free water. The concentration of RNA extracted at 260 nm and 280 nm wavelengths was measured using a UV/VIS spectrophotometer (Beckman coulter, DU730), and agarose gel electrophoresis was performed to confirm the integrity of the RNA sample.
(§2) cDNA was synthesized by performing reverse transcription using oligo dT primer and superscript reverse transcriptase (GIBCOBRL, Gaithersburg, Md., USA) after RNA isolation. The cDNA obtained by reverse transcription was determined as a template, and PCR was performed using the 5′ and 3′ flanking sequence of the gene cDNA to be amplified as primers. In this case, primers required were synthesized by a manufacture specialized company of primers (Bionia Co., Ltd., Korea), and the primer sequences were illustrated in Table 1 below. 2 μl of the reacted cDNA reaction mixture and 2.5 units of Taq polymerase (Takara, Japan) were added to a mixture prepared by adding 5 μl of 10× reaction buffer [100 mM KCL, 20 mM Tris-HCL (pH 8.0), 2.5 mM MgCl2], 4 μl of 10 mM dNTP, and 1 μl each of 0.2 μM sense and antisense primer, and the volume was adjusted using 50 μl of distilled water, then PCR was performed using a PCR instrument. PCR conditions were set at 94° C. for 4 minutes, 94° C. for 30 seconds, 30 cycles [52° C. for 30 seconds, 72° C. for 45 seconds] and 72° C. for 10 minutes. Since 1 μl of the amplified product was electrophoresed on 1% agarose gel to check the DNA band, gene expression level was evaluated.
(§3) The expression change of Wnt/β-catenin signal transduction material which was known as hair growth promotion mechanism in the back skin tissue of the mice to which the experimental material was applied for 4 weeks, was analyzed by RT-PCR.

[4] = tested on: FZD1 (frizzled receptor 1); assay: RT-PCR gene expression in back skin tissue; assay type: in vivo, mouse; conditions: 4 weeks application
Protocol: as §1, §2, §3

[5] = tested on: GSK3β (glycogen synthase kinase 3β); assay: RT-PCR gene expression in back skin tissue; assay type: in vivo, mouse; conditions: 4 weeks application
Protocol: as §1, §2, §3

[6] = tested on: LRP5 (low-density lipoprotein receptor-related protein 5); assay: RT-PCR gene expression in back skin tissue; assay type: in vivo, mouse; conditions: 4 weeks application
Protocol: as §1, §2, §3

Wnt10b = assay: RT-PCR gene expression in back skin tissue; assay type: in vivo, mouse; conditions: 4 weeks application
Protocol: as §1, §2, §3

β-catenin [7] = assay: RT-PCR gene expression in back skin tissue; assay type: in vivo, mouse; conditions: 4 weeks application
Protocol: as §1, §2, §3

[8] = tested on: hepatocyte growth factor (HGF); assay: RT-PCR gene expression in back skin tissue; assay type: in vivo, mouse; conditions: 4 weeks application
Protocol: as §1
as §2, with “PCR conditions were set at 94° C. for 4 minutes, 94° C. for 30 seconds, 30 cycles [52° C. for 30 seconds, 72° C. for 45 seconds] and 72° C. for 10 minutes.” left out
(§4) In addition, to investigate hair growth promoting action mechanism of Decanal, the expression change of endocrine factors affecting hair growth was evaluated. The gene expression level of insulin-like growth factor 1 (IGF1), vascular endothelial growth factor (VEGF), hepatocyte growth factor (HGF), and keratinocyte growth factor (KGF), which were growth factors affecting hair growth promotion in back skin tissue, was evaluated. […]

[9] = tested on: insulin-like growth factor 1 (IGF1); assay: RT-PCR gene expression in back skin tissue; assay type: in vivo, mouse; conditions: 4 weeks application
Protocol: as §1
as §2, with “PCR conditions were set at 94° C. for 4 minutes, 94° C. for 30 seconds, 30 cycles [52° C. for 30 seconds, 72° C. for 45 seconds] and 72° C. for 10 minutes.” left out
as §4

[10] = tested on: keratinocyte growth factor (KGF); assay: RT-PCR gene expression in back skin tissue; assay type: in vivo, mouse; conditions: 4 weeks application
Protocol: as §1
as §2, with “PCR conditions were set at 94° C. for 4 minutes, 94° C. for 30 seconds, 30 cycles [52° C. for 30 seconds, 72° C. for 45 seconds] and 72° C. for 10 minutes.” left out
as §4

[11] = tested on: vascular endothelial growth factor (VEGF); assay: RT-PCR gene expression in back skin tissue; assay type: in vivo, mouse; conditions: 4 weeks application
Protocol: as §1
as §2, with “PCR conditions were set at 94° C. for 4 minutes, 94° C. for 30 seconds, 30 cycles [52° C. for 30 seconds, 72° C. for 45 seconds] and 72° C. for 10 minutes.” left out
as §4

[12] = tested on: embryos of sea urchins and copepods; conditions: reported physiological activity; cited from earlier work
[13] = tested on: nematode parasitic on plant roots; conditions: reported; cited from earlier work

SMILES: Nc1cc(N2CCCCC2)nc(N)[n+]1[O-] [MXD, minoxidil, reference compound]
- Body weight after 4 weeks of application, difference between experimental groups [1]: not significantly different

SMILES: CCCCCCCCCC=O [DC, Decanal]
- Increase of hair length compared to negative control after 4 weeks (C57BL/6N mice; 4 weeks, p<0.001): 438%
- Visual state of hair growth after 4 weeks (C57BL/6N mice; 4 weeks, vs negative control): hair was grown evenly and heartily in the larger number of individuals compared to the negative control group
- Hair length compared to negative control, from the 2nd week (C57BL/6N mice; measured weekly): significantly increased from the 2nd week
- Onset of hair growth (visual observation) (C57BL/6N mice; negative control: no hair after 2 weeks): hair began to grow from the 2nd week after application
- Histological appearance of hair follicles [2]: the hair follicle was lengthened and appeared outside the skin
- Increase of hair follicle diameter compared to negative control ([2]; image analysis): 33%
- Increase of number of hair follicles compared to negative control ([2]; magnification of 40): 193%
- β-catenin protein expression effect compared to minoxidil group (β-catenin [3]): superior to the minoxidil group
- Increase of β-catenin protein expression compared to negative control (β-catenin [3]; 3 mg/mouse/day): 79%
- Axin gene expression compared to negative control (Axin): significantly decreased
- FZD1 gene expression compared to negative control [4]: significantly increased
- GSK3β gene expression compared to negative control [5]: significantly decreased
- LRP5 gene expression compared to negative control [6]: significantly increased
- Wnt10b gene expression compared to negative control (Wnt10b): significantly increased
- β-catenin gene expression compared to negative control (β-catenin [7]): significantly increased
- HGF gene expression compared to negative control [8]: significantly increased expression
- IGF1 gene expression compared to negative control [9]: significantly increased expression
- KGF gene expression compared to negative control [10]: significantly increased expression
- VEGF gene expression compared to negative control [11]: significantly increased expression
- Effect on embryos of sea urchins and copepods [12]: a reproductive failure was induced by inducing apoptosis
- Nematicidal activity [13]: strong nematicidal activity
- Body weight after 4 weeks of application, difference between experimental groups [1]: not significantly different
